Reference: the METLIN SMRT retention time set (Domingo-Almenara et al. 2019)

Assay: gradient 5% acetonitrile 3 min, to 50% in 2 min, to 85% in 15 min, held 3 min, 100 µL/min
Conditions: column: Zorbax Extend-C18 2.1 x 50 mm; eluents: water / acetonitrile, 0.1% formic acid
Method in brief: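 Standards, all pure, were combined into mixtures of ~100 molecules and run at 100 μL/min on a Zorbax Extend-C18 column (2.1 × 50 mm, 1.8 μm) with water and acetonitrile, each containing 0.1% formic acid. A coupled quadrupole time-of-flight mass spectrometer operated in positive and negative ionization mode. Retention time values come from computationally picked adduct peaks, each inspected manually.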

| Structure (SMILES) | RP-LC retention time [s] |
| --- | --- |
| Cc1nc(-c2csc(S(=O)(=O)N3CCC(C(=O)NCc4cccs4)CC3)c2)no1 | 823 |
| COc1ccc(NC(=O)Cc2csc3nc(-c4ccccc4)cn23)cc1OC | 703 |
| CCc1ccc(S(=O)(=O)N2CCN(c3cc(C)nc(NC4CCCCC4)n3)CC2)cc1 | 876 |
| CCCCNC(=O)C1CCN(c2cc(N3CCSCC3)ncn2)CC1 | 631 |
| CCOC(=O)c1cccc(NC(=O)N2CCC3(CC2)NC(=O)c2ccccc2O3)c1 | 804 |
| CC(=O)N1c2ccc(S(=O)(=O)N3CCCCC3)cc2CC1C(=O)N(C)Cc1ccccc1 (stereo unspecified) | 864 |
| Cc1ccc(NC(=O)Cn2c(N3CCCC3)nc(C)cc2=O)c(C)c1 | 669 |
| Cc1cnc(C(=O)N2CC[C@H](n3c(=O)n(C)c4cccnc43)C2)cn1 | 647 |
| CS(=O)(=O)N1CCCN(C(=O)NC2CCCC2)CC1 | 636 |
| Cc1cc(C(=O)N[C@@H]2CN(c3ncccn3)C[C@H]2CO)c(C)o1 | 616 |
| Cc1ccccc1NS(=O)(=O)c1ccc2c(c1)CCCC(=O)N2 | 725 |
| O=S(=O)(Nc1ccc(F)cc1)c1cccnc1Nc1ccc(F)c(F)c1 | 1080 |
| Cc1ccc(-n2c(C)c(C)c3c(=O)n(CC(=O)N4CCc5ccccc54)cnc32)cc1 | 1040 |
| Cc1nnc2ccc(-c3noc(-c4ccc5c(c4)OCO5)n3)cn12 | 871 |
| CCC(c1cccs1)N1C(=O)[C@H]2CN(S(=O)(=O)c3ccc(F)cc3)C[C@H]2C1=O (stereo partly specified) | 979 |
| Cc1ccc(-c2cc3n(n2)CCCN(C(=O)c2ccsc2)C3)cc1 | 845 |
| O=C(Cn1cccc1-c1nc(-c2ccccc2)cs1)N1CCN(C(=O)c2ccco2)CC1 | 899 |
| COc1ccc(OC)c(N2CC(c3nc(-c4ccc5c(c4)OCO5)no3)CC2=O)c1 (stereo unspecified) | 886 |
| Cc1nc(-c2ccccc2)cc2nn(CC(=O)Nc3ccccc3Br)c(=O)n12 | 995 |
| CCc1nc(-c2csc(S(=O)(=O)N3CCCC(C(=O)Nc4ccc(Cl)cc4)C3)c2)no1 (stereo unspecified) | 1100 |
| S=C(NCc1ccc2c(c1)OCO2)N1CCN(c2ncnc3c2oc2ccccc23)CC1 | 875 |
| O/N=C(\CC(O)(C(F)(F)F)C(F)(F)F)c1cccc(Cl)c1 | 944 |

| Structure (SMILES) | RP-LC retention time [s] |
| --- | --- |
| COc1ccccc1-c1noc(C2CCCN2C(=O)c2n[nH]c3ccccc23)n1 (stereo unspecified) | 829 |
| Cc1cccc(NC(=O)C2CCN(S(=O)(=O)c3cc(-c4noc(C5CC5)n4)cs3)CC2)c1C | 1020 |
| CCC1Oc2ccc(S(=O)(=O)N3CCC(C(=O)Nc4ccc5c(c4)OCO5)CC3)cc2NC1=O (stereo unspecified) | 809 |
| CCN(CCN(C)C)C(=O)CN1C(=O)C(Oc2ccc(F)cc2)C12CCCCC2 (stereo unspecified) | 724 |
| Cn1c(=O)c2ccnn2c2ccc(C(=O)NC3CCCCC3)cc21 | 742 |
| Cc1ccc2c(=O)c(C(=O)N3CCOCC3)cn(CC(=O)NC3CCCCC3)c2n1 | 653 |
| CCOC(=O)c1c(C)oc2nc(C)nc(N(C)Cc3ccccc3)c12 | 1150 |
| COc1nc2ccccc2nc1N1CCCC(C(=O)NC(C)c2ccccc2)C1 (stereo unspecified) | 1050 |
| Cc1ccc(Nc2ccc(NC(=O)C3CCCC3)cc2)nn1 | 566 |
| Cn1cc(-c2nc(C(=O)Nc3cccc(Cl)c3)cs2)c2cccnc21 | 1110 |
| CCn1ccc2sc(C)c(C(=O)NCc3ccccc3OC)c2c1=O | 796 |
| CCOc1ccc(NC(=O)Cc2csc3nc(-c4ccccc4)cn23)cc1 | 815 |
| CC(=O)N(Cc1nn(C)c2c1CN(S(=O)(=O)c1ccccc1F)CC2)c1ccccc1 | 779 |
| COc1ccc(N2CCN(Cc3nc4ccccc4[nH]c3=O)CC2)cc1 | 614 |
| O=C(CN1C(=O)NC2(CCCCC2)C1=O)Nc1ccc2c(c1)CCC2 | 846 |
| Cc1ccnc(OCC(=O)Nc2ccc(OC(F)(F)F)cc2)n1 | 771 |
| CC1=NS(=O)(=O)N(Cc2ccccc2)C=C1C(=O)OCc1nc(-c2ccc(Cl)cc2)no1 | 1220 |
| CCCNC(=O)N1CC(c2nc(-c3ccccc3)no2)C2(CCOCC2)C1 (stereo unspecified) | 770 |
| Nc1ccc(C(=O)c2cccs2)cn1 | 634 |
| Cc1nc2cc(N3CCCC(C(=O)O)C3)cnc2nc1C (stereo unspecified) | 604 |
| Cc1ccc(NC(=O)c2[nH]c3cc(C)sc3c2CN2CCOCC2)c(F)c1 | 728 |
| CC1Oc2ccc(S(=O)(=O)N3CCC(C(=O)NCCc4ccccc4)CC3)cc2NC1=O (stereo unspecified) | 792 |

| Structure (SMILES) | RP-LC retention time [s] |
| --- | --- |
| CCCCn1cnc2c(-c3ccccc3)cn(CC(=O)N3CCCC3)c2c1=O | 836 |
| CCOc1nc2ccccc2nc1N1CCCC(C(=O)N2CCN(c3ccccc3F)CC2)C1 (stereo unspecified) | 1330 |
| Cc1cccc(NC(=O)N2CCC(n3cnc4cc(Cl)ccc4c3=O)CC2)c1 | 877 |
| Cc1ccc(CNC(=O)CCNc2c(-c3cccc(F)c3)nc3cnccn23)o1 | 700 |
| O=C(NCc1ccccc1F)C1CCCN(c2cnc3nccnc3c2)C1 (stereo unspecified) | 680 |
| CCc1cc(=O)n(CC(=O)Nc2cc(C)cc(C)c2)c(N2CCOCC2)n1 | 802 |
| O=C(COc1ccc(Cl)cc1)Nc1nc2ccc([N+](=O)[O-])cc2s1 | 974 |
| CCCc1noc(-c2ccc3nnc(CC(=O)NC4CCCC4)n3c2)n1 | 922 |
| Cc1noc(CNC(=O)C2CCN(C(=O)c3ccc4ncsc4c3)CC2)n1 | 574 |
| CCOc1nc2ccccc2nc1N1CCCC(C(=O)NC(C)c2ccccc2)C1 (stereo unspecified) | 1120 |
| Cn1c(C(=O)Nc2ccc3c(c2)OCCO3)cc2c(=O)oc3ccccc3c21 | 910 |
| Cc1ccc(Cn2cc(-c3nc(-c4ccc(Cl)cc4)no3)ccc2=O)cc1 | 1250 |
| O=C(NC1CCN(c2cc(-c3ccc(F)cc3)[nH]n2)C1)c1cc(F)ccc1Cl (stereo unspecified) | 685 |
| COc1ccc(Cl)cc1S(=O)(=O)NCC1CCN(C(=O)c2ccccc2F)CC1 | 686 |
| O=C(NCCCN1CCCC1=O)c1nc2ccccn2c1-c1ccc(F)cc1 | 656 |
| O=C(NCc1ccccc1)c1nc(Cn2c(=O)oc3ccc(Cl)cc32)no1 | 960 |
| O=C(Nc1nc2c(F)cc(F)cc2s1)C1CCCN(S(=O)(=O)c2cccs2)C1 (stereo unspecified) | 767 |
| CC(C)(C)c1cc(C(C)(C)C)c2c(c1)C(O)(C(F)(F)F)C(=O)O2 (stereo unspecified) | 1250 |
| Cn1c(=O)sc2cc(S(=O)(=O)N3CCC(C(=O)Nc4cccc(Cl)c4)CC3)ccc21 | 953 |
| COc1ccc(Cl)cc1NC(=O)c1c(OC)cc(=O)n2c1CCCC2 | 801 |
| Cc1c(Cl)cccc1S(=O)(=O)NCC(O)c1ccc(C(F)(F)F)cc1 (stereo unspecified) | 938 |
| CCC(=O)N1CCc2cc(C)c(S(=O)(=O)NC3CC3)cc21 | 767 |
